Laboratory results from patent publication US20210038607A1, “OXADIAZOLYLTHIOPHENE DERIVATIVES USEFUL AS HISTONE DEACETYLASE INHIBITORS” (Karus Therapeutics Limited, priority 2018, published 2021).

How the values were obtained:
Human HDAC10 = target: T1, Human HDAC10 (Homo sapiens, UniProt Q969S8); assay: HDAC10 biochemical assay, AMC-labeled peptide substrate; settings: read-out: HDAC Isoform IC50 (nM) 10
T1 construct: Human HDAC10 (a.a. 1-481); GST (N); His (C); host or cells: baculovirus expression system
T1 sequence (Q969S8 1-481): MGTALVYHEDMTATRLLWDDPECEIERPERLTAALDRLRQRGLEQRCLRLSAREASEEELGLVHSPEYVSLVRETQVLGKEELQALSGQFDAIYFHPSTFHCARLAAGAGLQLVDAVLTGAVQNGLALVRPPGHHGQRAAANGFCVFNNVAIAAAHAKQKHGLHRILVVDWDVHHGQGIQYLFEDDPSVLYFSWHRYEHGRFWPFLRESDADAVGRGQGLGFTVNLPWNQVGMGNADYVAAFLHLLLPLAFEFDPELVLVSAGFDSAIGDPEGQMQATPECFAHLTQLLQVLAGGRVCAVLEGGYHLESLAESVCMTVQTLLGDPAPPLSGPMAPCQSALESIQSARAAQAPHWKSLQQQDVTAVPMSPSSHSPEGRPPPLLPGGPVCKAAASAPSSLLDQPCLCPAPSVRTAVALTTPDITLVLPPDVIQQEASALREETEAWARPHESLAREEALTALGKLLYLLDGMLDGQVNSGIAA
Procedure: (§1) Activity against all zinc-dependent HDACs 1 to 11 was assessed by using an acetylated AMC-labeled peptide substrate. The substrate RHKK(Ac)AMC was used for HDAC1, HDAC2, HDAC3, HDAC6 and HDAC10; the substrate used for HDAC8 was RHK(Ac)K(Ac)AMC. Activity against the class IIa HDACs (HDAC4, 5, 7, 9) and HDAC11 was determined using a class IIa-specific substrate, BOC-Lys(trifluoroacetyl)-AMC (“Trifluoroacetyl Lysine”; see Lahm et al, 2007, PNAS, 104, 17335-17340). All assays were based on the AMC-labeled substrate and developer combination.
(§2) The protocol involved a two-step reaction: first, the substrate with the acetylated lysine side chain is incubated with a sample containing HDAC activity, to produce the deacetylated products, which are then digested in the second step by the addition of developer to produce the fluorescent signal proportional to the amount of deacetylated substrates.
Human HDAC10 (a.a. 1-481), GenBank Accession No. NM_032019 with N-terminal GST tag and C-terminal His tag, MW=78 kDa, expressed in baculovirus expression system.
(§3) Assay Buffer: 50 mM Tris-HCl, pH8.0, 137 mM NaCl, 2.7 mM KCl, 1 mM MgC2. Before use, 1 mg/mL BSA and DMSO are added.
HDAC10: 12 ng/ul HDAC10 and 50 μM HDAC substrate are in the reaction buffer with 1% DMSO final. Incubate for 2 hours at 30° C.
(§4) Stage 1: Deacetylation of substrate by incubation of HDAC enzymes with compounds
(§5) Stage 2: Development by addition of Developer to digest the deacetylated substrate, and generate the fluorescent colour; Detection: 360/460 Ex/Em

Human HDAC8 = target: T2, Human HDAC8 (Homo sapiens, UniProt Q9BY41); assay: HDAC8 biochemical assay, AMC-labeled peptide substrate; settings: read-out: HDAC Isoform IC50 (nM) 8
T2 construct: full length with C-terminal His tag, MW=42.6 kDa; His (C); host or cells: baculovirus expression system
T2 sequence (Q9BY41 1-377): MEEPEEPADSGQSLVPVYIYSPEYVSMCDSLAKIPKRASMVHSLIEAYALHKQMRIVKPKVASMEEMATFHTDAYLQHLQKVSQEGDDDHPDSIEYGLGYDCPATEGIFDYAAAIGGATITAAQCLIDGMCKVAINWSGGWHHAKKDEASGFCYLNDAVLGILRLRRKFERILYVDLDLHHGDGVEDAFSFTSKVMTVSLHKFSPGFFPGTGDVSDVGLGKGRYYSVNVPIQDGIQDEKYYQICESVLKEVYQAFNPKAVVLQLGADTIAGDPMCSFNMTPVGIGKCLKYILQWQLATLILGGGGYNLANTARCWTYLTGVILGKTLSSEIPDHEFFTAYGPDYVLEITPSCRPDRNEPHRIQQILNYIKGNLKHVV
Procedure: as §1, §2
Human HDAC8 (GenBankAccession No. NM_018486), full length with C-terminal His tag, MW=42.6 kDa, expressed in a baculovirus expression system.
as §3
HDAC8: 1 ng/ul HDAC8 and 100 µM HDAC8 substrate are in the reaction buffer with 1% DMSO final. Incubate for 2 hours at 30° C.
as §4, §5

Human HDAC9 = target: T3, Human HDAC9 (Homo sapiens, UniProt Q9UKV0); assay: HDAC9 biochemical assay, class IIa-specific substrate; settings: read-out: HDAC Isoform IC50 (nM) 9
T3 construct: amino acids 604-1066 with C-terminal His tag; His (C); host or cells: baculovirus expression system
T3 sequence (Q9UKV0 604-1066 isoform Q9UKV0-5): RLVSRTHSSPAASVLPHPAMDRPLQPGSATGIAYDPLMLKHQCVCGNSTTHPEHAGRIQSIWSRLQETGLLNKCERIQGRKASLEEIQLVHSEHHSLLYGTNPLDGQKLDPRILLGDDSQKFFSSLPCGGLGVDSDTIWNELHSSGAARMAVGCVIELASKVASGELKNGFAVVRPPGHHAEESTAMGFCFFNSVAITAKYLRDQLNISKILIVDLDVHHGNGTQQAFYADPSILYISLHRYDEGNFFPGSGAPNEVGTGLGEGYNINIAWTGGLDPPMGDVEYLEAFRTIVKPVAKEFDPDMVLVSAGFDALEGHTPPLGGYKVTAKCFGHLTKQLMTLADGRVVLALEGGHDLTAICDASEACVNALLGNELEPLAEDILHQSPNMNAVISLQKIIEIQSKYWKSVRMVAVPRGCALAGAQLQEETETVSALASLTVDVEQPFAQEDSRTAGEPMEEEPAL
How it was run: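 HDAC9 residues 604-1066 (C-terminal His tag, baculovirus-expressed) at 0.06 ng/ul with 50 μM class IIa substrate Boc-Lys(trifluoroacetyl)-AMC in Tris-HCl pH 8.0 buffer with BSA and 1% DMSO. 30 min at room temperature, then developer added; fluorescence read at 360/460 nm Ex/Em.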

In the case of `O=C(c1cnnc(N(Cc2ccc(-c3noc(C(F)(F)F)n3)s2)c2cnccn2)c1)N1CCS(=O)(=O)CC1` [Example ED, 4-{6-[(Pyrazin-2-yl)({5-[5-(trifluoromethyl)-1,2,4-oxadiazol-3-yl]thiophen-2-yl}methyl)amino]pyridazine-4-carbonyl}-1λ^6-thiomorpholine-1,1-dione], the IC50 (Human HDAC10) is reported as > 10000 nM, the IC50 (Human HDAC8) is reported as ≤ 10000 nM and the IC50 (Human HDAC9) is reported as ≤ 10000 nM.

In the case of `OC1(c2cnnc(N(Cc3ccc(-c4noc(C(F)(F)F)n4)s3)c3cnccn3)c2)COC1` [Example GW, 3-{6-[(Pyrazin-2-yl)({5-[5-(trifluoromethyl)-1,2,4-oxadiazol-3-yl]thiophen-2-yl}methyl)amino]pyridazin-4-yl}oxetan-3-ol], the IC50 (Human HDAC10) is reported as > 10000 nM, the IC50 (Human HDAC8) is reported as ≤ 10000 nM and the IC50 (Human HDAC9) is reported as ≤ 10000 nM.

`FC(F)(F)c1nc(-c2ccc(CN(c3cnccn3)c3cnc(N4CCOCC4)cn3)s2)no1` [Example BM, 5-(Morpholin-4-yl)-N-(pyrazin-2-yl)-N-({5-[5-(trifluoromethyl)-1,2,4-oxadiazol-3-yl]thiophen-2-yl}methyl)pyrazin-2-amine] was tested, and the IC50 (Human HDAC10) was > 10000 nM, the IC50 (Human HDAC8) was ≤ 10000 nM and the IC50 (Human HDAC9) was ≤ 10000 nM.

In the case of `O=C(O)c1cnnc(N(Cc2ccc(-c3noc(C(F)(F)F)n3)s2)c2cc(C(F)(F)F)cnn2)c1` [Example ES, 6-[({5-[5-(Trifluoromethyl)-1,2,4-oxadiazol-3-yl]thiophen-2-yl}methyl)[5-(trifluoromethyl)pyridazin-3-yl]amino]pyridazine-4-carboxylicacid], the IC50 (Human HDAC10) is reported as > 10000 nM, the IC50 (Human HDAC8) is reported as ≤ 10000 nM and the IC50 (Human HDAC9) is reported as > 10000 nM.

For `FC(F)(F)c1cnnc(N(Cc2ccc(-c3noc(C(F)(F)F)n3)s2)c2cnccn2)c1` [Example EF, N-(Pyrazin-2-yl)-5-(trifluoromethyl)-N-({5-[5-(trifluoromethyl)-1,2,4-oxadiazol-3-yl]thiophen-2-yl}methyl)pyridazin-3-amine], the IC50 (Human HDAC10) was > 10000 nM, the IC50 (Human HDAC8) was ≤ 10000 nM and the IC50 (Human HDAC9) was ≤ 10000 nM.

In the case of `FC(F)(F)c1nc(-c2ccc(CN(c3cnccn3)c3ccc(CN4CCOCC4)nn3)s2)no1` [Example FN, 6-[(Morpholin-4-yl)methyl]-N-(pyrazin-2-yl)-N-({5-[5-(trifluoromethyl)-1,2,4-oxadiazol-3-yl]thiophen-2-yl}methyl)pyridazin-3-amine], the IC50 (Human HDAC10) is reported as > 10000 nM, the IC50 (Human HDAC8) is reported as ≤ 10000 nM and the IC50 (Human HDAC9) is reported as ≤ 10000 nM.

For `COc1nccnc1N(Cc1ccc(-c2noc(C(F)(F)F)n2)s1)c1cnccn1` [Example BF, 3-Methoxy-N-(pyrazin-2-yl)-N-({5-[5-(trifluoromethyl)-1,2,4-oxadiazol-3-yl]thiophen-2-yl}methyl)pyrazin-2-amine], the IC50 (Human HDAC10) was > 10000 nM, the IC50 (Human HDAC8) was ≤ 10000 nM and the IC50 (Human HDAC9) was ≤ 10000 nM.

In the case of `[O-][S+]1CCN(Cc2ccc(N(Cc3ccc(-c4noc(C(F)(F)F)n4)s3)c3cnccn3)nn2)CC1` [Example FO, 4-({6-[(Pyrazin-2-yl)({5-[5-(trifluoromethyl)-1,2,4-oxadiazol-3-yl]thiophen-2-yl}methyl)amino]pyridazin-3-yl}methyl)-1lambda4-thiomorpholin-1-one], the IC50 (Human HDAC10) is reported as > 10000 nM, the IC50 (Human HDAC8) is reported as ≤ 10000 nM and the IC50 (Human HDAC9) is reported as ≤ 10000 nM.

`CNC(=O)c1cnnc(N(Cc2ccc(-c3noc(C(F)(F)F)n3)s2)c2cnccn2)c1` [Example DY, N-Methyl-6-[(pyrazin-2-yl)({5-[5-(trifluoromethyl)-1,2,4-oxadiazol-3-yl]thiophen-2-yl}methyl)amino]pyridazine-4-carboxamide] was tested, and the IC50 (Human HDAC10) was > 10000 nM, the IC50 (Human HDAC8) was ≤ 10000 nM and the IC50 (Human HDAC9) was ≤ 10000 nM.

With `FC(F)(F)c1nc(-c2ccc(CN(c3cnccn3)c3cc(-c4ccccn4)cnn3)s2)no1` [Example GM, N-(Pyrazin-2-yl)-5-(pyridin-2-yl)-N-({5-[5-(trifluoromethyl)-1,2,4-oxadiazol-3-yl]thiophen-2-yl}methyl)pyridazin-3-amine] the IC50 (Human HDAC10) was > 10000 nM, the IC50 (Human HDAC8) was ≤ 10000 nM and the IC50 (Human HDAC9) was ≤ 10000 nM.

`O=C(c1cnnc(N(Cc2ccc(-c3noc(C(F)(F)F)n3)s2)c2cnccn2)c1)N1CC[S+]([O-])CC1` [Example FU, 4-{6-[(Pyrazin-2-yl)({5-[5-(trifluoromethyl)-1,2,4-oxadiazol-3-yl]thiophen-2-yl}methyl)amino]pyridazine-4-carbonyl}-1lambda4-thiomorpholin-1-one] was tested, and the IC50 (Human HDAC10) was > 10000 nM, the IC50 (Human HDAC8) was ≤ 10000 nM and the IC50 (Human HDAC9) was ≤ 10000 nM.

`O=C(c1ccc(N(Cc2ccc(-c3noc(C(F)(F)F)n3)s2)c2cnccn2)nn1)N1CCCC1` [Example FI, N-(Pyrazin-2-yl)-6-(pyrrolidine-1-carbonyl)-N-({5-[5-(trifluoromethyl)-1,2,4-oxadiazol-3-yl]thiophen-2-yl}methyl)pyridazin-3-amine] was tested, and the IC50 (Human HDAC10) was > 10000 nM, the IC50 (Human HDAC8) was ≤ 1000 nM and the IC50 (Human HDAC9) was ≤ 1000 nM.

With `O=C(O)c1cnnc(N(Cc2sc(-c3noc(C(F)(F)F)n3)cc2F)c2cnccn2)c1` [Example FA, 6-[({3-fluoro-5-[5-(trifluoromethyl)-1,2,4-oxadiazol-3-yl]thiophen-2-yl}methyl)(pyrazin-2-yl)amino]pyridazine-4-carboxylic acid] the IC50 (Human HDAC10) was > 10000 nM, the IC50 (Human HDAC8) was ≤ 10000 nM and the IC50 (Human HDAC9) was ≤ 10000 nM.

For `CN1CCN(C(=O)c2cnnc(N(Cc3ccc(-c4noc(C(F)(F)F)n4)s3)c3cnccn3)c2)CC1` [Example EC, 5-(4-Methylpiperazine-1-carbonyl)-N-(pyrazin-2-yl)-N-({5-[5-(trifluoromethyl)-1,2,4-oxadiazol-3-yl]thiophen-2-yl}methyl)pyridazin-3-amine], the IC50 (Human HDAC10) was > 10000 nM, the IC50 (Human HDAC8) was ≤ 10000 nM and the IC50 (Human HDAC9) was ≤ 10000 nM.

In the case of `O=C(c1cnnc(N(Cc2ccc(-c3noc(C(F)(F)F)n3)s2)c2cnccn2)c1)N1CCC1` [Example FS, 5-(Azetidine-1-carbonyl)-N-(pyrazin-2-yl)-N-({5-[5-(trifluoromethyl)-1,2,4-oxadiazol-3-yl]thiophen-2-yl}methyl)pyridazin-3-amine], the IC50 (Human HDAC10) is reported as > 10000 nM, the IC50 (Human HDAC8) is reported as ≤ 10000 nM and the IC50 (Human HDAC9) is reported as ≤ 10000 nM.

For `O=C(c1cnnc(N(Cc2ccc(-c3noc(C(F)(F)F)n3)s2)c2cnccn2)c1)N1CC(F)(F)C1` [Example FT, 5-(3,3-Difluoroazetidine-1-carbonyl)-N-(pyrazin-2-yl)-N-({5-[5-(trifluoromethyl)-1,2,4-oxadiazol-3-yl]thiophen-2-yl}methyl)pyridazin-3-amine], the IC50 (Human HDAC10) was > 10000 nM, the IC50 (Human HDAC8) was ≤ 10000 nM and the IC50 (Human HDAC9) was ≤ 10000 nM.

`FC(F)(F)c1nc(-c2ccc(CN(c3cnccn3)c3cc(CN4CCOCC4)ccn3)s2)no1` [Example GI, N-{4-[(Morpholin-4-yl)methyl]pyridin-2-yl}-N-({5-[5-(trifluoromethyl)-1,2,4-oxadiazol-3-yl]thiophen-2-yl}methyl)pyrazin-2-amine] was tested, and the IC50 (Human HDAC10) was > 10000 nM, the IC50 (Human HDAC8) was ≤ 10000 nM and the IC50 (Human HDAC9) was ≤ 10000 nM.
